What was measured:
[1] = Reversion of phosphonate to orthophosphate by oxidizing biocides; type: physicochemical; conditions: 10 ppm oxidant (as Cl2) dosed, pH 9.1, 23° C.
Description: The biocides studied consisted of WELLGUARD® 7030, bleach (NaOCl), and activated sodium bromide (NaOCl and NaBr). The WELLGUARD® 7030 and bleach were added directly. Activated sodium bromide was prepared in situ by introducing 20 ppm bromide ion to the stock solution followed by addition of bleach. The phosphonates used in this work consisted of AMP (aminomethylene phosphonic acid), HEDP (hydroxyethylidene diphosphonic acid), and PBTC (phosphonobutanetricarboxylic acid). These materials were commercial samples (Mayoquest 1320, 1500, and 2100, respectively) obtained from Callaway Chemical Co. (Smyrna, Ga.).
Solutions consisting of 5 ppm scale inhibitor (as active phosphonate) in the presence of 10 ppm oxidant (as Cl2) were prepared as follows. To 900 mL deionized water were added appropriate stock solutions containing phosphonate, alkalinity (NaHCO3), and calcium hardness (CaCl2). The pH was adjusted to 9.1 with 5% aq. NaOH and diluted up to 1 L in a dark amber bottle. A dose of oxidant was added to achieve a residual of 10 ppm. The solutions were then periodically monitored for phosphonate reversion by determining the reversion to orthophosphate (Hach method 490). The oxidant residual was also periodically monitored using the DPD method (Hach method 80). All of this work was performed at room temperature (23° C.). […]

[2] = system: Mysidopsis bahia juveniles; assay: 48-hour acute LC50 assay, static renewal; type: in vivo
Description: (§1) The test concentrations were prepared daily, and used immediately for test initiation and renewal. The total residual chlorine was measured in the highest concentration tested for each sample. The measured chlorine concentrations were used to calculate the estimated chlorine concentrations at the lower sample dilutions in these tests. Both range finder and definitive assays were conducted.
(§2) A second set of experiments were conducted to mimic aged treated seawater. This attempted to model water that had been held in a pipeline for 24 hours, and then discharged. The experiments were identical to those described in the preceding paragraph, except that the highest test concentrations were prepared 24 hours before exposure to the test organisms. These same solutions were then used to prepare the 24 hour static renewal concentrations. The residual chlorine concentrations were measured when the test organisms were initially exposed to the toxic insult. These measurement were used to calculate the estimated chlorine concentrations at the lower sample dilutions in these tests, and after the static renewal at 24 hours.

Medinia beryllina larvae = assay: 48-hour acute LC50 assay, static renewal; type: in vivo
Description: as §1, §2

[3] = aged: highest test concentrations prepared 24 hours before exposure
[4] = fresh test solutions, static renewal at 24 hours

## [Na+].[O-]Cl [Bleach, NaOCl]
[1]; 5 ppm AMP, 460 minutes
  Cl2 (oxidant residual): 9.4 ppm
[1]; 5 ppm HEDP, 400 minutes
  Cl2 (oxidant residual): 10.6 ppm
[2]; [3]
  48-hour acute LC50: 0.42 ppm as Cl2
[2]; [4]
  48-hour acute LC50: 0.34 ppm as Cl2
Medinia beryllina larvae; [3]
  48-hour acute LC50: 0.50 ppm as Cl2
Medinia beryllina larvae; [4]
  48-hour acute LC50: 0.57 ppm as Cl2
